Experimental findings from ChEMBL document CHEMBL1131176, “Structure-based enhancement of boronic acid-based inhibitors of AmpC beta-lactamase” (J Med Chem, 1998) are described below.

Each structure is given as a SMILES string.

T1 sequence (P00811 whole entry): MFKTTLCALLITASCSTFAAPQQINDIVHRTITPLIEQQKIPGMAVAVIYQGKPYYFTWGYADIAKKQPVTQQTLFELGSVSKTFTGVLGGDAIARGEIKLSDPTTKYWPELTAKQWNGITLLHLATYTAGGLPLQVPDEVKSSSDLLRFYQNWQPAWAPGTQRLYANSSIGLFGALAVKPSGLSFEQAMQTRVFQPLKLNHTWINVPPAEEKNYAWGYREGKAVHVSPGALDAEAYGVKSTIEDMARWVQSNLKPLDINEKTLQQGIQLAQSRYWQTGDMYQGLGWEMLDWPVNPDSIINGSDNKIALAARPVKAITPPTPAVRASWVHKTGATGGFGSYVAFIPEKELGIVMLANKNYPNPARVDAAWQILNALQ

One experiment addresses T1, Beta-lactamase (Escherichia coli K-12, UniProt P00811). Description: Compound was tested for its specificity against AmpC beta-lactamase.
In general, IC50 refers to the concentration needed to halve the response being measured. A low value points to higher potency. The molecule `OB(O)[C@@H]1CCOC1` gave a half-maximal inhibitory concentration (IC50) of 5 µM.
As to `OB(O)c1ccc(Cl)s1`, the IC50 was 2 µM.
The molecule `OB(O)c1cc2ccccc2o1` showed a concentration for half-maximal inhibition (IC50) of 0.6 µM.
The same measure, in the same setting: next, `OB(O)c1cccc(C(F)(F)F)c1`: 5 µM; `CN(C)c1cccc2c(S(=O)(=O)Nc3cccc(B(O)O)c3)cccc12` [M(DANSYLAMIDOPHENYL)BORONIC ACID]: 5 µM.

Another experiment deals with T1, Beta-lactamase. The experiment can be described thus: Inhibitory activity against Escherichia coli AmpC beta-lactamase.
The term Ki denotes the equilibrium dissociation constant of an inhibitor or competing ligand from its target. In turn, `OB(O)c1ccc(-c2ccc(B(O)O)cc2)cc1` registered a Ki of 0.2 µM.
Molecule `CC(=O)c1ccc(B(O)O)s1` came in with a Ki of 1.6 µM.
Molecule `O=Cc1ccccc1B(O)O` returned an inhibition constant (Ki) of 25.3 µM.
Regarding `O=Cc1ccc(B(O)O)cc1`, the Ki is 2.9 µM.
Still for that read-out and setting: as for `OB(O)c1cc2ccccc2c2ccccc12`, the figure is 7 µM.
Same read-out and setting: as for `OB(O)c1ccc(B(O)O)cc1`, the figure is 3.9 µM; as for `OB(O)c1ccco1`, greater than 100 µM; as for `OB(O)c1ccc(Cl)s1`, 0.41 µM.
Still for that read-out and setting: next, `OB(O)c1cc2ccccc2o1`: 0.22 µM.
On to `OB(O)c1ccc(C(F)(F)F)cc1`, for which the inhibition constant Ki was 3 µM.
Same read-out and setting: next, `OB(O)c1ccc(Br)cc1`: 3.6 µM.
Still for that read-out and setting: next, `COc1ccc(B(O)O)cc1`: 5.9 µM.
The same measure, in the same setting: as for `O=Cc1ccsc1B(O)O`, the figure is 3.8 µM.
In turn, `OB(O)c1cccc(C(F)(F)F)c1` registered a Ki of 1.1 µM.
On the same count and under the same terms, next, `OB(O)c1ccsc1`: 22.1 µM; `OB(O)c1ccc(F)cc1`: 6.4 µM; `OB(O)c1cccc2ccccc12`: 12 µM.
On the same count and under the same terms, as for `O=C(O)c1cccc(B(O)O)c1`, the figure is greater than 100 µM; as for `CCCCB(O)O` [BUTYL BORONIC ACID], greater than 100 µM.
The same measure, in the same setting: as for `OB(c1ccccc1)c1ccccc1` [DIPHENYL BORINIC ACID], the figure is greater than 100 µM.
With `CN(C)c1cccc2c(S(=O)(=O)Nc3cccc(B(O)O)c3)cccc12` [M(DANSYLAMIDOPHENYL)BORONIC ACID], the inhibitory constant (Ki) stood at 1.3 µM.
On the same count and under the same terms, next, `OB(O)c1ccccc1` [PHENYLBORONIC ACID]: 10.5 µM; `Cc1ccc(B(O)O)cc1` [TOLYL BORONIC ACID]: 5.4 µM.

Another experiment has as its target Chymotrypsinogen A (Bos taurus, UniProt P00766). Description: Compound was tested for its specificity against alpha-chymotrypsin.
For `OB(O)[C@@H]1CCOC1`, the IC50 was greater than 200 µM.
Still for that read-out and setting: next, `OB(O)c1cccs1`: greater than 200 µM; `OB(O)c1ccc(Cl)s1`: greater than 100 µM; `OB(O)c1cc2ccccc2o1`: 14 µM.
Consider `OB(O)c1cccc(C(F)(F)F)c1`, for which the IC50 was greater than 200 µM.
Still for that read-out and setting: as for `OB(O)c1cc2ccccc2s1`, the figure is 5 µM.
On the same count and under the same terms, next, `CN(C)c1cccc2c(S(=O)(=O)Nc3cccc(B(O)O)c3)cccc12` [M(DANSYLAMIDOPHENYL)BORONIC ACID]: greater than 100 µM.

The species entered for the next experiment is Homo sapiens. The experiment can be described thus: Compound was tested for its specificity against Elastase.
For the molecule `OB(O)[C@@H]1CCOC1`, the concentration for half-maximal inhibition (IC50) was greater than 200 µM.
Still for that read-out and setting: next, `OB(O)c1cccs1`: 200 µM; `OB(O)c1ccc(Cl)s1`: 200 µM; `OB(O)c1cccc(C(F)(F)F)c1`: greater than 200 µM.
On the same count and under the same terms, as for `CN(C)c1cccc2c(S(=O)(=O)Nc3cccc(B(O)O)c3)cccc12` [M(DANSYLAMIDOPHENYL)BORONIC ACID], the figure is 50 µM.
